This note sets out measurements from patent US20220249463A1, “METHODS OF ALTERING CARDIAC REMODELING USING COMPOUNDS THAT PROMOTE GLUCOSE OXIDATION” (IMBRIA PHARMACEUTICALS, INC., priority 2019, published 2022).

Experiment [1] has as its system isolated hearts after ischemia-reperfusion. In words: Ischemia-reperfusion (IR): coronary flow. Type of experiment: in vivo, mice. As to conditions: TMZ 20 μM, TNF 2 μM each, TNS 20 μM each, individual hearts, MEAN = group mean; for CF20: coronary flow at 20 minutes; for CF170: coronary flow at 170 minutes, after IR; for CF170/CF20: ratio of flow at 170 minutes to flow at 20 minutes. Here is the method:
FIG. 38 is a schematic of the ischemia-reperfusion (IR) method used to analyze the effects of selected compositions on coronary flow, cardiac function, and infarct size. […] At 20 minutes, ischemia was induced, and coronary flow was analyzed. At 50 minutes, reperfusion was initiated to restore blood flow. At 170 minutes, coronary flow and cardiac function was analyzed, and then the hearts were preserved, sectioned, and infarct size was measured by triphenyltetrazolium chloride (TTC) staining. FIG. 39 is a graph of coronary flow of after IR.

Experiment [2] has the same test system. In words: Ischemia-reperfusion (IR): cardiac function (left ventricular pressure). On the set-up: species or system mice. As to conditions: for left ventricular developed pressure (LVDP), Mean: Table 6 group mean; for HR / LVDP / LVDPxHR / LVEDP / LVESP: individual hearts, MEAN = group mean. Here is the method:
FIG. 38 is a schematic of the ischemia-reperfusion (IR) method used to analyze the effects of selected compositions on coronary flow, cardiac function, and infarct size. […] At 20 minutes, ischemia was induced, and coronary flow was analyzed. At 50 minutes, reperfusion was initiated to restore blood flow. At 170 minutes, coronary flow and cardiac function was analyzed, and then the hearts were preserved, sectioned, and infarct size was measured by triphenyltetrazolium chloride (TTC) staining. FIG. 40 is graph of left ventricular developed pressure (LVDP) after IR.

The test system is the same in experiment [3]. In words: Ischemia-reperfusion (IR): infarct size by TTC staining. Format: in vivo, mice. As for the experimental part: FIG. 38 is a schematic of the ischemia-reperfusion (IR) method used to analyze the effects of selected compositions on coronary flow, cardiac function, and infarct size. […] At 20 minutes, ischemia was induced, and coronary flow was analyzed. At 50 minutes, reperfusion was initiated to restore blood flow. At 170 minutes, coronary flow and cardiac function was analyzed, and then the hearts were preserved, sectioned, and infarct size was measured by triphenyltetrazolium chloride (TTC) staining. […] FIG. 42 is graph of infarct size after IR.

In experiment [4] the test system is TAC mice. In words: TAC mice, six weeks treatment: heart weight and heart weight/body weight. Type of experiment: in vivo. As to conditions: 6 weeks; for cardiac remodeling in TAC mice (in words): TMZ 6, NA 2.4, CV-8814 7.5, CV-8972 10 mg/kg/day.
Experiment [5] deals with TAC mice. In words: TAC mice: left ventricular pressure with Mikro-tip catheter. Type of experiment: in vivo. As to conditions: end of 6-week treatment; for left ventricular developed pressure (LVDP): TMZ 6, NA 2.4, CV-8814 7.5, CV-8972 10 mg/kg/day.
For experiment [6], the system named is TAC mice. In words: TAC mice: echocardiography. Type of experiment: in vivo.
For experiment [7], the system named is TAC mice. In words: TAC mice: cardiac fibrosis, Masson's trichrome. Format: in vivo. As to conditions: end of 6-week experiment.
[8] abbreviates: TMZ 20 μM, TNF 2 μM each, TNS 20 μM each.

Several values for one entry are separate records, joined by “and”; a condition that tells them apart may be missing. Identical values can stand only once.

On to `COc1ccc(CN2CCNCC2)c(OC)c1OC` [TMZ, trimetazidine], for which the CF20 in experiment [1] is 2.13 mL/min and 1.7 mL/min and 2.18 mL/min and 3.83 mL/min and 1.72 mL/min and 2.4 mL/min and 2.14 mL/min and 2.03 mL/min; in experiment [1] (mean) it was 2.27 mL/min. In addition, the CF170 in experiment [1] is 0.0516 mL/min and 0.1 mL/min and 0.0778 mL/min and 0.129 mL/min and 0.0898 mL/min and 0.0656 mL/min and 0.0556 mL/min and 0.13 mL/min; in experiment [1] (mean), 0.0874 mL/min. Also, the CF170/CF20 in experiment [1] is 2.42E+01 μl/ml and 5.87E+01 μl/ml and 3.57E+01 μl/ml and 3.37E+01 μl/ml and 5.21E+01 μl/ml and 2.73E+01 μl/ml and 2.60E+01 μl/ml and 6.39E+01 μl/ml; in experiment [1] (mean) it was 4.02E+01 μl/ml. In addition, the “left ventricular developed pressure (LVDP), Mean” value in experiment [2] (T20 (20 minutes)) is 55.86; in experiment [2] (T170 (170 minutes, after IR)) it was 48.91. Also, the “cardiac function after IR (in words)” value in experiment [2] (setting [8]) was “prevented a decline in cardiac function”. Further, the HR was 1.18E+02 and 1.19E+02 and 1.01E+02 and 1.51E+02 and 6.70E+01 and 9.22E+01 and 2.22E+02 and 1.70E+02 and 1.16E+02 and 2.38E+02 in experiment [2] (after 2h reperfusion); 1.39E+02 in experiment [2] (after 2h reperfusion, mean); 2.63E+02 and 2.93E+02 and 1.66E+02 and 3.35E+02 and 3.58E+02 and 3.33E+02 and 3.48E+02 and 3.21E+02 and 2.67E+02 and 3.32E+02 in experiment [2] (pre-ischemia); 3.02E+02 in experiment [2] (pre-ischemia, mean). For the same molecule, the LVDP in experiment [2] (after 2h reperfusion) was 2.14E+01 and 4.34E+01 and 5.22E+01 and 2.97E+01 and 4.84E+01 and 4.67E+01 and 4.10E+01 and 7.65E+01 and 5.53E+01 and 7.43E+01; in experiment [2] (after 2h reperfusion, mean), 4.89E+01; in experiment [2] (pre-ischemia) it was 6.93E+01 and 7.90E+01 and 6.48E+01 and 5.30E+01 and 6.51E+01 and 3.80E+01 and 2.82E+01 and 3.15E+01 and 5.87E+01 and 7.11E+01; in experiment [2] (pre-ischemia, mean), 5.59E+01. In addition, the LVDPxHR in experiment [2] (after 2h reperfusion) was 2.52E+03 and 5.15E+03 and 5.28E+03 and 4.49E+03 and 3.24E+03 and 4.31E+03 and 9.11E+03 and 1.30E+04 and 6.44E+03 and 1.77E+04; in experiment [2] (after 2h reperfusion, mean), 6.82E+03; in experiment [2] (pre-ischemia), 1.83E+04 and 2.31E+04 and 1.08E+04 and 1.77E+04 and 2.33E+04 and 1.26E+04 and 9.82E+03 and 1.01E+04 and 1.57E+04 and 2.36E+04; in experiment [2] (pre-ischemia, mean), 1.68E+04. In addition, the LVEDP in experiment [2] (after 2h reperfusion) is 2.93E+01 and 3.31E+01 and 3.96E+01 and 1.80E+01 and 3.36E+00 and 1.87E+00 and 1.99E+01 and 3.21E+01 and 1.84E+01 and 1.77E+00; in experiment [2] (after 2h reperfusion, mean), 1.97E+01; in experiment [2] (pre-ischemia), 6.53E+00 and 5.43E+00 and 6.76E+00 and 1.74E+00 and 3.58E+00 and 4.71E+00 and 4.77E+00 and 1.46E+00 and 7.25E+00 and 2.70E+00; in experiment [2] (pre-ischemia, mean), 4.49E+00. In addition, the LVESP was 5.07E+01 and 7.66E+01 and 9.19E+01 and 4.77E+01 and 5.18E+01 and 4.86E+01 and 6.09E+01 and 1.09E+02 and 7.38E+01 and 7.61E+01 in experiment [2] (after 2h reperfusion); 6.86E+01 in experiment [2] (after 2h reperfusion, mean); 7.58E+01 and 8.44E+01 and 7.15E+01 and 5.47E+01 and 6.87E+01 and 4.27E+01 and 3.30E+01 (2×) and 6.60E+01 and 7.38E+01 in experiment [2] (pre-ischemia, TMZ 20 μM, TNF 2 μM each, TNS 20 μM each); 6.03E+01 in experiment [2] (pre-ischemia, TMZ 20 μM, TNF 2 μM each, TNS 20 μM each, mean). Further, the “infarct size after IR (in words)” value in experiment [3] (setting [8]) is “decreased infarct size”. In addition, the IS/LV in experiment [3] (individual isolated hearts after ischemia-reperfusion) was 58% and 49% (2×) and 44% and 71% and 64% and 68% and 60% and 43% and 51%. For the same molecule, in experiment [3] (mean of 10 hearts of the group), the “IS/LV Mean” value came out at 56%. Moreover, the “cardiac remodeling in TAC mice (in words)” value in the experiment with TAC mice [4] is on record as “effectively inhibited cardiac remodeling”. In the experiment on TAC mice [4] (TAC mice, TMZ 6, CV-8814 7.5, CV-8972 10 mg/kg/day, osmotic minipump), this molecule gave a cardiac mass of 224 ± 12 mg. Besides, in the experiment with TAC mice [5], the “+dp/dtm” value stood at 5157±615 mm Hg/sec. In the experiment on TAC mice [5], the “left ventricular developed pressure (LVDP)” value stood at 137±10 mm Hg. The LV mass with TAC mice [6] (3-weeks after TAC) came to 153 ± 8 mg; in the experiment on TAC mice [6] (6-weeks after TAC), 176 ± 15 mg. In the experiment with TAC mice [6] (6-weeks after TAC), this molecule showed an IVRT of 36 ± 1 ms. Besides, the “cardiac fibrosis (fibrotic area to whole heart tissue area)” value in the experiment on TAC mice [7] stood at 7.6±1%.

Consider `O=C(O)c1cccnc1` [NA, nicotinic acid, reference compound], for which the “cardiac remodeling in TAC mice (in words)” value in the experiment on TAC mice [4] is “no significant effect on cardiac remodeling”. For the same molecule, the “left ventricular developed pressure (LVDP)” value in the experiment on TAC mice [5] is on record as 141±20 mm Hg. In the experiment on TAC mice [6] (6-weeks after TAC), this molecule displayed an IVRT of 29 ± 2 ms. In the experiment with TAC mice [6] (TAC mice, NA 2.4 mg/kg/day), the “IVSd (in words)” value is “decreased IVSd” and the “LV mass (in words)” value was “no effect on LV mass”. Moreover, in the experiment with TAC mice [7], the “cardiac fibrosis (fibrotic area to whole heart tissue area)” value was 8.2±1%.
